Laboratory results as given in PMC11126936, “Reactivating Hippo by drug compounds to suppress gastric cancer and enhance chemotherapy sensitivity” (The Journal of Biological Chemistry, 2024).
Read-outs that look alike come from different tables or passages of the source.

How the values were obtained:
STRN3 = target: T1, STRN3 (Homo sapiens, UniProt Q13033); test: ITC binding to STRN3
T1 construct: His-SUMO; made in house; host or cells: E. coli BL21 Codon plus (DE3)
Method: (§1) ITC experiments were conducted using an iTC200 instrument from Microcal at 25 °C. […] Each titration included a single […] injection followed by 19 sequential injections of […] aliquots, with a spacing of 300 s between the injections, and stirring at 1000 rpm. Data were analyzed using the ITC data analysis software (MicroCal Software, https://www.malvernpanalytical.com/en/support/product-support/software/microcal-peaq-itc-analysis-software-v141).

PP2Aa [1] = target: T2, PP2Aa (Homo sapiens, UniProt P30153); test: MST assay, binding to PP2Aa
T2 construct: GST; made in house; host or cells: E. coli BL21 Codon plus (DE3)
T2 sequence (P30153 8-589): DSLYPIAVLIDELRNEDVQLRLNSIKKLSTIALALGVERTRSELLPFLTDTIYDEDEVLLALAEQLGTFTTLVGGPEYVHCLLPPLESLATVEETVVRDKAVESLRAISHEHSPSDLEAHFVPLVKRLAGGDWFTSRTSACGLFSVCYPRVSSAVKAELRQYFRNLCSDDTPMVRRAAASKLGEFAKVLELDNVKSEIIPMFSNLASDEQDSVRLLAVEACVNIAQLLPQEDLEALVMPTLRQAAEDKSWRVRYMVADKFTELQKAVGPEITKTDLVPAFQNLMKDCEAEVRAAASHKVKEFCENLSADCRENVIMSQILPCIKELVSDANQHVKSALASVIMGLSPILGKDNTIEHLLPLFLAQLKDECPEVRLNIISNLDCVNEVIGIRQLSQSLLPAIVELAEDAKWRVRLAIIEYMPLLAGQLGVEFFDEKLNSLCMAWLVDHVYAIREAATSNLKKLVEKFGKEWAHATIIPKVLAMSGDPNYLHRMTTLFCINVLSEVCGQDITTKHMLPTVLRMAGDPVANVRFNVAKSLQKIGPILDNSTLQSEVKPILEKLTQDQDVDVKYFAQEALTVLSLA

GES-1 cells = test: Cell viability of non-cancerous gastric epithelial GES-1 cells; conditions: Homo sapiens, GES1, read-out: IC50 value, GES-1 cells
mice = conditions: ref [65]; cited from earlier work
zebrafish larvae = conditions: ref [65], [66]; cited from earlier work
HGC-27 cells [2] = test: Colony formation assay in HGC-27 cells; conditions: about 2 weeks
Method: After about 2 weeks incubation, cell colonies were identified by their being stained with 1% crystal violet dye. And colonies with diameters of >1 mm were counted.

MNNG-induced GC tumors = test: MNNG-induced GC mouse model; conditions: 50 mg/kg per day DSF vs control mice
HGC-27 cells [3] = test: Cell viability assay in HGC-27 cells; assay type: cell-based, human; conditions: for IC50: cell viability, read-out: IC50 values in HGC-27 cells
PP2Aa–STRN3 interaction [4] = target: T3, PP2Aa–STRN3 interaction (Homo sapiens, UniProt P30153); test: Co-IP of HA-PP2Aa and Flag-STRN3 in HEK293A cells; assay type: cell-based; set-up: expressed in transfected cells; host or cells: HEK293A
Target sequence in this assay (P30153 whole entry): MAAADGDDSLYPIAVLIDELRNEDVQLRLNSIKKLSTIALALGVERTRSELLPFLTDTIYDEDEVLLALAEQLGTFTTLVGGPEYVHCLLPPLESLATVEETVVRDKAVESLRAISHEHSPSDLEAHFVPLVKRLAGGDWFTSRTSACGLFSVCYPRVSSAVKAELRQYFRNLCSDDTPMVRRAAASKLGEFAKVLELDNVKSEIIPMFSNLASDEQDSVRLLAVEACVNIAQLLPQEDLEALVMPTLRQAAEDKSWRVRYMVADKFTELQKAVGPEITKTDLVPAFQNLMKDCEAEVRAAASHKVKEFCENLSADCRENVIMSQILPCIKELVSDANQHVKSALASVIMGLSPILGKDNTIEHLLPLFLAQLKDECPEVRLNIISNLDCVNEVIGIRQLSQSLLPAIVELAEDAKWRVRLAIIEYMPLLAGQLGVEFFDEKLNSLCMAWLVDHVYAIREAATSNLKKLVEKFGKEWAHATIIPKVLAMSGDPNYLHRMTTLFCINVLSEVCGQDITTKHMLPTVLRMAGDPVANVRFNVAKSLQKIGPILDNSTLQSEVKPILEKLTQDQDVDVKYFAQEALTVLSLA

AGS cells xenograft = test: AGS xenograft tumor model; conditions: intratumoral injection, five consecutive days, vs control
Method: Briefly, healthy male 615 mice were maintained in pathogen-free conditions. Mice were first injected with 2 × 10^6 AGS cells/per mouse into their flanks to induce tumor formation. Once the tumor volume reached about 100 mm^3, mice were injected intratumorally with indicted inhibitors for five successive days. Two weeks later, the mice were euthanized and then their tumors were harvested and weighed.

YAP phosphorylation = conditions: HEK293A, Flag-YAP
PP2Aa–STRN3 interaction [5] = target: T3, PP2Aa–STRN3 interaction; test: GST pulldown assay, PP2Aa–STRN3; assay type: binding; set-up: GST; SUMO; made in house; host or cells: E. coli BL21 Codon plus (DE3); conditions: recombinant GST-PP2Aa and His-Sumo-STRN3; up to 10 μM compound
Target sequence in this assay (P30153 8-589): as the sequence (P30153 8-589) above

[6] = tested on: YAP target gene CTGF in HGC-27 cells; test: CTGF mRNA (qPCR) in HGC-27 cells; conditions: 48 h
PP2Aa [7] = target: T2, PP2Aa; test: ITC binding to PP2Aa; conditions: 25 °C
Method: as §1

T1 sequence (Q13033 64-145): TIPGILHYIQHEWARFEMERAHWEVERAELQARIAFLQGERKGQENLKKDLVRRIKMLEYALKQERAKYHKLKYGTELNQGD

**Q.** For CCN(CC)C(=S)SSC(=S)N(CC)CC [DSF, disulfiram], which “binding to STRN3” value (STRN3) is on record?
**A.** can specifically bind to PP2Aa but not STRN3

**Q.** And the Kd (PP2Aa [1])?
**A.** 4.9 µM

**Q.** What about the “effect on binding of STRN3 to PP2Aa” value (PP2Aa [1]; compound added) of the same compound?
**A.** readily disrupted the binding of STRN3 to PP2Aa

**Q.** And the IC50 (GES-1 cells)?
**A.** 1.29 µM

**Q.** What about the “in vivo side effects in mice” value (mice) of the same compound?
**A.** reduction of body weight and glucose excretion

**Q.** And the “adverse effects in zebrafish larvae” value (zebrafish larvae)?
**A.** adverse effects

**Q.** What about the “colony formation of HGC-27 cells” value (HGC-27 cells [2]) of the same compound?
**A.** significantly inhibited colony formation

**Q.** What about the “Ctgf expression in tumors (RNA-Scope)” value (MNNG-induced GC tumors) of the same compound?
**A.** sharp decrease

**Q.** What about the area of tumors (MNNG-induced GC tumors) of the same compound?
**A.** substantially smaller

**Q.** What about the IC50 (HGC-27 cells [3]; listed as Disulfiram) of the same compound?
**A.** 0.39 µM

**Q.** And the IC50 (HGC-27 cells [3])?
**A.** < 5 µM

**Q.** And the “effect of addition of copper ion on suppression of HGC-27 cell viability by the compound” value (HGC-27 cells [3]; compound-Cu complex vs compound)?
**A.** further dramatically enhanced

**Q.** And the “PP2Aa–STRN3 interaction in Co-IP” value (PP2Aa–STRN3 interaction [4])?
**A.** dramatically decreased

**Q.** And the “tumor weight / tumor growth” value (AGS cells xenograft)?
**A.** modestly lower tumor weights

**Q.** And the “level of pYAP^Ser” value (YAP phosphorylation)?
**A.** dose-dependently increased

**Q.** And the “level of pYAP^Tyr” value (YAP phosphorylation)?
**A.** marginal effect

**Q.** What about the “PP2Aa–STRN3 association in GST pulldown” value (PP2Aa–STRN3 interaction [5]) of the same compound?
**A.** dramatically reduced

**Q.** And the “mRNA levels of YAP target gene CTGF” value [6]?
**A.** significantly reduced

**Q.** And the Kd (PP2Aa [7])?
**A.** 4.1 µM
